From patent US10889572B2, “Reactive oxygen species scavengers and use for treating diseases” (XW LABORATORIES INC., priority 2017, dated 2021)
Like-named read-outs stand apart in the source and are kept apart here.

What was measured:
[1] = tested on: HT-1080 (fibrosarcoma) cells; assay: Primary screening by ferroptosis assay (Erastin-induced, cell viability, CellTiter-Glo); type: cell-based; conditions: HT-1080 cells, % remaining activity, read-out: EC50, Inhibition for Ferroptosis in HT-1080 Cell
Procedure: Cell Lines and Media: HT-1080 (fibrosarcoma) cells were obtained from American Type Culture Collection. Cells were grown in EMEM media, 10% Heat-Inactivated FBS, and penicillin-streptomycin mix (Invitrogen). Cells were maintained at 37° C. and 5% CO2 in a tissue culture incubator.
Cell Viability Assay: Seed 10,000 cell/well of HT-1080 cells with 195 μL growth media in black and clear bottom 96-well plates (Cat #Corning 3904) and allow cells to adhere overnight. The next day, dilute test compound by 2-fold dilution into 12 points with medium containing 400 μM Erastin. Transfer 5 μL of compounds solution into growth medium in triplicated wells. 30 hours later, add Cell Titer-Glo® Luminescent cell viability assay reagent (Cat #, Promega G8081) to measure HT-1080 cell viability according to the manufacture protocol. Briefly, aspirate 100 μL medium, and add 50 μL CellTiter-Glo® Luminescent reagent to each well and incubated for 30 minutes at room temperature to stabilize the Luminescent signal. Seal the plates and centrifuged for 1 minute at 1,000 rpm to remove bubbles. Shake the plates for 1 minute on an orbital shaker. Read the plate to detect Luminescent signal with EnSpire Multimode Plate Reader (PerkinElmer). The remaining activity % is used to evaluate Erastin induced ferroptosis in HT-1080 cells and expressed as the following formula: % Remaining Activity−100×[(Sample−Backgroundavg)/(Vehicle−Background avg)]
Sample: Readout from the test compound
Vehicle: Readout from the vehicle sample
Background: Readout from the Erastin only treatment
Dose response curve is graphed by using the non-linear regression analysis (formula equation 201) in XLFit (Excel add-in software) for the average % remaining activity from triplicates, and the EC50 values is then calculated. In this anti-ferroptosis assay, ferrostatin-1, and XJB-5-131 are included as reference. The acceptance criteria were set based on historical result, mean±2.58*SD in logarithmic scale, meanwhile Z′>0.5.

3T3-L1 cells = assay: Apoptosis assay (Caspase-Glo 3/7, Actinomycin D induced); type: cell-based; conditions: 100 nM Actinomycin D, 48 hours, Caspase-Glo 3/7, 2 hours pre-treatment, read-out: EC50, Inhibition for Apoptosis in 3T3-L1 Cell induced by Actinomycin D
Procedure: Cell Lines and Media. 3T3-L1 cells were obtained from American Type Culture Collection. Cells were grown in DMEM completed media, 10% FBS, and penicillin-streptomycin mix (Invitrogen). Cells were maintained at 37° C. and 5% CO2 in a tissue culture incubator.
Apoptosis Assay. […] We used this assay to screen our compounds for apoptosis inhibition. Briefly, 40 μL of 3000 3T3-L1 cells were seeded per well in 384 well plates, cells were allowed to adhere overnight. In the next day, prepare the Actinomycin D as the apoptosis inducing agent into 100 μM DMSO stock. Prepare the test compounds into 10 mM DMSO stock. Serial dilute the compound into 10 points by 3-fold dilution with DMSO. Pre-treat the 3T3-L1 cells with test compound by transfer 40 nL of stock of serial concentration in triplicate wells using acoustic fluid transfer, incubate for 2 hours. Then transfer 40 nL of 100 μM of Actinomycin D (final concentration is 100 nM) into designated wells using acoustic fluid transfer. Incubate the assay plates at 37° C., 5% CO2, 95% humidity incubator for 48 hours. For caspase assay, add 20 μL/well of Caspase-Glo>3/7 reagent (Promega) into test wells. Incubate for 30 minutes at room temperature to stabilize the luminescence signal. Read the plate with EnSpire Multimode Plate Reader (PerkinElmer). Calculate the EC50 value using formula equation 201: y−(A+((B−A)/(1+((x/C)^D)))) from the XLFit (Excel add-in software), where
A: Average mean of vehicle samples
B: Average mean of cells treated with 100 nM AcD
Z′ factor was used to describe the screening assay perfonuance. The Z′ factor value was >0.5 in all the test plates which indicated the assay was qualified and the IC50 value was reliable for all tested compounds.

Compound	EC50 ([1]; 30 hours) [nM]	EC50 ([1]; Homo sapiens, HT-1080, 30 h) [nM]	EC50 (3T3-L1 cells; Mus musculus, 3T3-L1) [nM]	other results
1-Oxyl-2,2,6,6-tetramethylpiperidin-4-yl-N-[(4S)—4-{[(2S)-1-[(2S,3E,5S)-2-benzyl-5-{[(tert- butoxy)carbonyl]amino}-7-methyloct-3-enoyl]pyrrolidin-2-yl]formamido}-4-[(1-oxyl-2,2,6,6-tetramethylpiperidin-4-yl)carbamoyl]butyl]carbamate [Example XXXXII]	274	–	–	EC50 (3T3-L1 cells): 708 nM
CC(C)C[C@@H](/C=C/[C@H](Cc1ccccc1)C(=O)N1CCC[C@H]1C(=O)NC(CCCNC(=O)OCc1ccccc1)C(=O)NC1CC(C)(C)N(O)C(C)(C)C1)NC(=O)OC(C)(C)C (stereo in doubt) [Example V, Benzyl N-[(4R)—4-{[(2S)-1-[(2S,3E,5S)-2-benzyl-5-{[(tert-butoxy)carbonyl]amino}-7-methyloct-3-enoyl]pyrrolidin-2-yl]formamido}-4-[(1-hydroxy-2,2,6,6-tetramethylpiperidin-4-yl)carbamoyl]butyl]carbamate]	–	141	1310	–
CC(C)C[C@@H](/C=C/[C@H](Cc1ccccc1)C(=O)N1CCC[C@H]1C(=O)N[C@@H](CCCNC(=O)OCc1ccccc1)C(=O)NC1CC(C)(C)N(O)C(C)(C)C1)NC(=O)OC(C)(C)C [Example I, Benzyl N-[(4S)—4-{[(2S)-1-[(2S,3E,5S)-2-Benzyl-5-{[(Tert-Butoxy)Carbonyl]Amino}-7-Methyloct-3-Enoyl]Pyrrolidin-2-Yl]Formamido}-4-[(1-Oxyl-2,2,6,6-Tetramethylpiperidin-4-Yl)Carbamoyl]Butyl]Carbamate]	260	–	–	EC50 (3T3-L1 cells): 1580 nM
CC(C)C[C@@H](/C=C/[C@H](Cc1ccccc1)C(=O)N1CCC[C@H]1C(=O)N[C@@H](C(=O)NC1CC(C)(C)N([O])C(C)(C)C1)C(C)C)NC(=O)OC(C)(C)C [Example II, tert-Butyl ((4S,7S,E)-7-benzyl-8-((S)-2-(((R)-1-((1-oxyl-2,2,6,6-tetramethylpiperidin-4-yl)amino)-3-methyl-1-oxobutan-2-yl)carbamoyl)pyrrolidin-1-yl)-2-methyl-8-oxooct-5-en-4-yl)carbamate]	–	–	3040	EC50 ([1]; Homo sapiens, 30 hours): 289 nM
CC(C)C[C@@H](/C=C/[C@H](Cc1ccccc1)C(=O)N1CCC[C@H]1C(=O)N[C@@H](C(=O)N[C@@H](CCCNC(=O)OCc1ccccc1)C(=O)NC1CC(C)(C)N(O)C(C)(C)C1)C(C)C)NC(=O)OC(C)(C)C [Example IV]	–	–	1270	EC50 ([1]; Homo sapiens, 30 hours): 564 nM
CC(C)C[C@@H](/C=C/[C@H](Cc1ccccc1)C(=O)N1CCC[C@H]1C(=O)N[C@H](CCCCNC(=O)OC1CC(C)(C)N(O)C(C)(C)C1)C(=O)O)NC(=O)OC(C)(C)C [XXXIV, (2R)—2-{[(2S)-1-[(2S,3E,5S)-2-benzyl-5-{[(tert-butoxy)carbonyl]amino}-7-methyloct-3-enoyl]pyrrolidin-2-yl]formamido}-6-({[(1-oxyl-2,2,6,6-tetramethylpiperidin-4-yl)oxy]carbonyl}amino)hexanoic acid]	–	> 4000	–	–
COC(=O)[C@H](CCCNC(=O)OC1CC(C)(C)N(O)C(C)(C)C1)NC(=O)[C@@H](NC(=O)[C@@H]1CCCN1C(=O)[C@H](/C=C/[C@H](CC(C)C)NC(=O)OC(C)(C)C)Cc1ccccc1)C(C)C [XXXIX, (S)-methyl 2-((S)-2-((S)-1-((2S,5S,E)-2-benzyl-5-((tert-butoxycarbonyl)amino)-7-methyloct-3-enoyl)pyrrolidine-2-carboxamido)-3-methylbutanamido)—5-((((1-hydroxy-2,2,6,6-tetramethylpiperidin-4-yl)oxy)carbonyl)amino)pentanoate]	142	–	–	–
CC(C)C[C@@H](/C=C/[C@H](Cc1ccccc1)C(=O)N1CCC[C@H]1C(=O)N[C@@H](CCCNC(=O)OC1CC(C)(C)N(O)C(C)(C)C1)C(=O)NC1CC(C)(C)N(O)C(C)(C)C1)NC(=O)OC(C)(C)C [XXXXIII, 1-Hydroxy-2,2,6,6-tetramethylpiperidin-4-yl N-[(4S)—4-{[(2S)-1-[(2S,3E,5S)-2-benzyl-5-{[(tert-butoxy)carbonyl]amino}-7-methyloct-3-enoyl]pyrrolidin-2-yl]formamido}-4-[(1-hydroxy-2,2,6,6-tetramethylpiperidin-4-yl)carbamoyl]butyl]carbamate]	–	123	–	–
